Common to all, as to assay type: binding
The target of one experiment is T1, JAK1 (Homo sapiens, UniProt P23458).
T1 construct: endogenous in cells; host or cells: Molt4 (ATCC CRL-1582) and Ramos (ATCC CRL-1596) cells; mixed lysate 1:2
Kind of experiment: Kinobeads assay with immunodetection, JAK1. As to conditions: for IC50: Kinobeads assay, mixed Molt4/Ramos lysate, read-out: Inhibition values (IC50) JAK1. Put shortly:
(§1)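 Competition binding: test compounds (9-step 1:3 dilutions of a 5 mM DMSO stock) compete with affinity matrix ligand for kinases in Molt4 plus Ramos lysate (ratio 1:2, 10 mg/mL) over 3 h in a cold room. Captured kinases are detected by specific antibodies in dot blot, and IC50 values are derived per kinase.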

Another experiment has as its target T2, JAK2 (Homo sapiens, UniProt O60674).
T2 construct: endogenous in cells; host or cells: Molt4 (ATCC CRL-1582) and Ramos (ATCC CRL-1596) cells; mixed lysate 1:2
Kind of experiment: Kinobeads assay with immunodetection, JAK2. As to conditions: mixed Molt4/Ramos lysate, read-out: Inhibition values (IC50) JAK2. In outline: as §1

A further experiment addresses T3, JAK3 (Homo sapiens, UniProt P52333).
T3 construct: endogenous in cells; host or cells: Molt4 (ATCC CRL-1582) and Ramos (ATCC CRL-1596) cells; mixed lysate 1:2
T3 sequence (P52333 1-1124): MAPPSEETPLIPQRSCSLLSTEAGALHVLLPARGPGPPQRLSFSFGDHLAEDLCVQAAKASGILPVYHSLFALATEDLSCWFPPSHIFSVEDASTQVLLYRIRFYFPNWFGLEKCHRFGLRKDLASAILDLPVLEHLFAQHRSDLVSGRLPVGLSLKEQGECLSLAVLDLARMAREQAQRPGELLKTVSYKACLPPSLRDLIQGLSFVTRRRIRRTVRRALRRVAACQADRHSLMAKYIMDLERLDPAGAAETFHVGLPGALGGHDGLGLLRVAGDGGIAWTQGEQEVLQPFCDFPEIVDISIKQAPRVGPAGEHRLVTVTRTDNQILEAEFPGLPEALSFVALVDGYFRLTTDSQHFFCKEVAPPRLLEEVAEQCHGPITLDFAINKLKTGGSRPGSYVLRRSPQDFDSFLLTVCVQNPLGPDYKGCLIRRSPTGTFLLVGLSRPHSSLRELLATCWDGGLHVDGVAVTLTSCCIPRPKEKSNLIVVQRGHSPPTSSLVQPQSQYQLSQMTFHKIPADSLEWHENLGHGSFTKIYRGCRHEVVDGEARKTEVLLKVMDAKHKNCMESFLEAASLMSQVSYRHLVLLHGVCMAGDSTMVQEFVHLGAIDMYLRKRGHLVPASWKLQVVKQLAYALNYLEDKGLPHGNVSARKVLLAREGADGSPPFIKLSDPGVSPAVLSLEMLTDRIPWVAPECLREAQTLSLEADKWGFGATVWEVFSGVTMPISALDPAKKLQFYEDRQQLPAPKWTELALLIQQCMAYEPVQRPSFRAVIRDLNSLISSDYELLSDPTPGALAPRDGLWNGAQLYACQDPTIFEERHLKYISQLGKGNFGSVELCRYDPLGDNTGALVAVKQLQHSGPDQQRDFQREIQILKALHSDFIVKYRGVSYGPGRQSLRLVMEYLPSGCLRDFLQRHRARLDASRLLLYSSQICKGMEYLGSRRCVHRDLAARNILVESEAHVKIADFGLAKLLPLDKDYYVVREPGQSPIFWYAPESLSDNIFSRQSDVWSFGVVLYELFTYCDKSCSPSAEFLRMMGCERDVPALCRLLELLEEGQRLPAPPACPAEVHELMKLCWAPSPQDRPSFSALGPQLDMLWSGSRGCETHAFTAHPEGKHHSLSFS
Kind of experiment: Kinobeads assay with immunodetection, JAK3. The conditions noted are these: Kinobeads assay, mixed Molt4/Ramos lysate; read-out: Inhibition values (IC50) JAK3. Put shortly:
as §1

The next experiment deals with T4, TYK2 (Homo sapiens, UniProt P29597).
T4 construct: endogenous in cells; host or cells: Molt4 (ATCC CRL-1582) and Ramos (ATCC CRL-1596) cells; mixed lysate 1:2
Kind of experiment: Kinobeads assay with immunodetection, TYK2. The conditions noted are these: for IC50: Kinobeads assay, mixed Molt4/Ramos lysate, read-out: Inhibition values (IC50) Tyk2. In outline: as §1

Structures can show the parent of a compound that is named as a salt.

By IC50 is commonly meant the concentration that gives 50% inhibition.

T2 sequence (O60674 whole entry): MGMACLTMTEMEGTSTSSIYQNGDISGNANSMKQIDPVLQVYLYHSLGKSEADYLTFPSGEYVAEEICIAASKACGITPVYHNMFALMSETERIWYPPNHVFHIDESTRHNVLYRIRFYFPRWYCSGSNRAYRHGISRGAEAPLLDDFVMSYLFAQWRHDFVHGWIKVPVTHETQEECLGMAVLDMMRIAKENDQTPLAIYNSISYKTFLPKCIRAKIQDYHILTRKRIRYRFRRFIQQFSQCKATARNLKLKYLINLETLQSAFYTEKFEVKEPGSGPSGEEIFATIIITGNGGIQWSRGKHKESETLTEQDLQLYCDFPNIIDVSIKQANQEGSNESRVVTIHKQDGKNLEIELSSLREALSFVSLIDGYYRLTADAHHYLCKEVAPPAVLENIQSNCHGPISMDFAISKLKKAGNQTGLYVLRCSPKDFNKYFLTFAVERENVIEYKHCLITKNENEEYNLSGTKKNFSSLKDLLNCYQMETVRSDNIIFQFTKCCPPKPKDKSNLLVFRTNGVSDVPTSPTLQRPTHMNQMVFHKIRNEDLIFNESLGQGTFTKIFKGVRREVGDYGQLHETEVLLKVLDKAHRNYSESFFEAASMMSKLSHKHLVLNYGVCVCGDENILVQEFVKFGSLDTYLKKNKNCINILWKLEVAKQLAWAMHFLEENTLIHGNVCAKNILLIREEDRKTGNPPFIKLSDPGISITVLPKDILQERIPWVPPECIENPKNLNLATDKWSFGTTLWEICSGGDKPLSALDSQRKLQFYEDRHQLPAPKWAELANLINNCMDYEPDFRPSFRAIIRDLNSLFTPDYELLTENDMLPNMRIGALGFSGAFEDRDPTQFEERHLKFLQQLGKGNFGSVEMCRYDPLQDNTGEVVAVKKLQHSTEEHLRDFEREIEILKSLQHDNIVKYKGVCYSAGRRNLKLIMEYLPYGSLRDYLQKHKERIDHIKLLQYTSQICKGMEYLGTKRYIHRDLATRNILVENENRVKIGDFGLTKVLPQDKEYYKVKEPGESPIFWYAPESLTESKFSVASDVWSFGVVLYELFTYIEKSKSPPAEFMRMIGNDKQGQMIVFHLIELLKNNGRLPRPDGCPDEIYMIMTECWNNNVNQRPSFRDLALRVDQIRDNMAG
T4 sequence (P29597 whole entry): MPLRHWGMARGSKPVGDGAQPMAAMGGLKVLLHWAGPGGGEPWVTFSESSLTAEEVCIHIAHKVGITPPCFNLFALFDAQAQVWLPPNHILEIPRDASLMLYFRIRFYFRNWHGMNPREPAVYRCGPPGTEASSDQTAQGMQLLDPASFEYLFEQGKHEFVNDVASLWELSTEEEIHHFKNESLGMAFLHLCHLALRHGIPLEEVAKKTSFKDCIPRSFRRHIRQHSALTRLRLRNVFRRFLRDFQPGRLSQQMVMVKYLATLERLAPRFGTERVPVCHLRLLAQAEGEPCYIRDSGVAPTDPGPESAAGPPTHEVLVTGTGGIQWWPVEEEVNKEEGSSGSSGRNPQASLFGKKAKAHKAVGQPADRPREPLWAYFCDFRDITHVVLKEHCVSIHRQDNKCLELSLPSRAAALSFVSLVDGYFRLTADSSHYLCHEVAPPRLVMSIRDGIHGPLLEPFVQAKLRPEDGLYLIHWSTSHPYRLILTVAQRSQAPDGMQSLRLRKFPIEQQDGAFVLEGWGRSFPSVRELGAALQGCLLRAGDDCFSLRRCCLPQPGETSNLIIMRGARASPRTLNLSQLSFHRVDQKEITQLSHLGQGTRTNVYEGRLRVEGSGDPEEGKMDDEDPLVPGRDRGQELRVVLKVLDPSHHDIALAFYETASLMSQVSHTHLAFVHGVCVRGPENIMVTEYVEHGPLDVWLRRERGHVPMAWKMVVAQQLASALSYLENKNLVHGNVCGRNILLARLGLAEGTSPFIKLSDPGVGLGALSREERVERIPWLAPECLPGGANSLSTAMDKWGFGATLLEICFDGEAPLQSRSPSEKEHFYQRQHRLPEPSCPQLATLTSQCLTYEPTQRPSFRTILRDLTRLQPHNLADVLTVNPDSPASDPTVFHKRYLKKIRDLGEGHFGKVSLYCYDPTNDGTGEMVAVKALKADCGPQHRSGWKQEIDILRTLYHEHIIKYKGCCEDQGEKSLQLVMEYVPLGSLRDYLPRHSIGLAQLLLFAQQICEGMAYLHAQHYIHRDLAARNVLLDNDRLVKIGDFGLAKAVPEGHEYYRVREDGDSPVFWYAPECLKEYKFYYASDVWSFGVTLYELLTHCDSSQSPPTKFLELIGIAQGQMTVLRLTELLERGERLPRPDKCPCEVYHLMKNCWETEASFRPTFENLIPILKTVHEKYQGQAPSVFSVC
T1 sequence (P23458 whole entry): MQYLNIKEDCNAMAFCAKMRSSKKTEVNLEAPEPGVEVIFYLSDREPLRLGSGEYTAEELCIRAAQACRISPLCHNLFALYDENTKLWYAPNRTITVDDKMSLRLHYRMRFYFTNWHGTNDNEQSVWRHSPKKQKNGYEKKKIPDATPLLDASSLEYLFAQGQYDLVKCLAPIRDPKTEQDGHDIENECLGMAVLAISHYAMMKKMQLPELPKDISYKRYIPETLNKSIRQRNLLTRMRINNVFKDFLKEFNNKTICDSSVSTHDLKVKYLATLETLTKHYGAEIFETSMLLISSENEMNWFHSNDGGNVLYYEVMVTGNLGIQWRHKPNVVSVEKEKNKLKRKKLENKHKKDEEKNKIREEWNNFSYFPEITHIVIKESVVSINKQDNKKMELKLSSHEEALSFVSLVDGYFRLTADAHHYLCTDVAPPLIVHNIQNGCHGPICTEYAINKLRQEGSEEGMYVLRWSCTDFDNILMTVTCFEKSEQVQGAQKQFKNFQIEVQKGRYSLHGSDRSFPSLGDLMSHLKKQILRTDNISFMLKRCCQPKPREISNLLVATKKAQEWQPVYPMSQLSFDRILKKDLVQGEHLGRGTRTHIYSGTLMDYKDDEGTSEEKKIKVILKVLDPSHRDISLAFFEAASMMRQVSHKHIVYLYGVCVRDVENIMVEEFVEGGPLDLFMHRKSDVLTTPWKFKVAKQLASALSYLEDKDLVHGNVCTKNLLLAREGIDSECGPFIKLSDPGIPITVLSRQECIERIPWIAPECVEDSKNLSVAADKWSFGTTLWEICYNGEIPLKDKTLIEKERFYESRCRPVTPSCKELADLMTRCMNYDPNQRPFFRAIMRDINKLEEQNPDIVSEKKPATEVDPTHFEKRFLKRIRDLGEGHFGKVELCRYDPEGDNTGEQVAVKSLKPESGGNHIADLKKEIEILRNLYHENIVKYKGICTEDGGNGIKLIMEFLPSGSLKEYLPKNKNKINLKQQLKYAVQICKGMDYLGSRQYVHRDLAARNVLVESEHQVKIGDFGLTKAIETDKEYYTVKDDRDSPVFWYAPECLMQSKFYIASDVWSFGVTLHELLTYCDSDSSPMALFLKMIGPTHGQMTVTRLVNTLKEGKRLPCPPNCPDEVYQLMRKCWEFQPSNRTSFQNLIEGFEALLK

As for `Cc1cnc(Nc2cnn(CC(F)F)c2)nc1NC[C@H]1CCCN1C(=O)CC#N` [Example 118, (R)-3-(2-(((2-((1-(2,2-difluoroethyl)-1H-pyrazol-4-yl)amino)-5-methylpyrimidin-4-yl)amino)methyl)pyrrolidin-1-yl)-3-oxopropanenitrile], on JAK1, the “Selectivity ratio over JAK2, JAK1” value is “JAK1 = 69”. Also, the IC50 on JAK1 was less than 100 nM; at JAK2, 100 to 1000 nM; at JAK3, 100 to 1000 nM; on TYK2 it was less than 100 nM.
Take `Cn1cc(Nc2ncc(Cl)c(NC[C@@H]3C[C@H](F)CN3CCCC#N)n2)cn1` [Example 133, 4-((2S,4S)-2-(((5-chloro-2-((1-methyl-1H-pyrazol-4-yl)amino)pyrimidin-4-yl)amino)methyl)-4-fluoropyrrolidin-1-yl)butanenitrile]: the “Selectivity ratio over JAK2, JAK1” value on JAK1 is reported as “JAK1 = 19”. The IC50 on JAK1, on JAK2, on JAK3 and at TYK2 was less than 100 nM each time.
For the molecule `C=CS(=O)(=O)N1CCC[C@H]1CNc1nc(Nc2cnn(C)c2)ncc1Cl` [Example 14, (S)-5-chloro-N^2-(1-methyl-1H-pyrazol-4-yl)-N^4-((1-(vinylsulfonyl)pyrrolidin-2-yl)methyl)pyrimidine-2,4-diamine], the IC50 at JAK1 was 100 to 1000 nM; at JAK2, 1000 to 10000 nM; on JAK3, less than 100 nM; on TYK2, less than 100 nM. Further, the “Selectivity ratio over JAK2, Tyk2” value on TYK2 was “Tyk2 = 14”.
As for `Cl.Cn1cc(Nc2ncc(F)c(NC[C@@H]3CCCN3S(C)(=O)=O)n2)cn1` [Example 75, (S)-5-fluoro-N2-(1-methyl-1H-pyrazol-4-yl)-N4-((1-(methylsulfonyl)pyrrolidin-2-yl)methyl)pyrimidine-2,4-diamine Hydrochloride], the IC50 on JAK1 is less than 100 nM; on JAK2, 1000 to 10000 nM; at JAK3, 100 to 1000 nM; on TYK2 it was less than 100 nM. Besides, the “Selectivity ratio over JAK2, Tyk2” value on TYK2 is “Tyk2 = 28”.
For the molecule `Cl.Cn1cc(Nc2ncc(F)c(NC[C@H]3CCCN3S(C)(=O)=O)n2)cn1` [Example 74, (R)-5-fluoro-N^2-(1-methyl-1H-pyrazol-4-yl)-N^4-((1-(methylsulfonyl)pyrrolidin-2-yl)methyl)pyrimidine-2,4-diamine Hydrochloride], the IC50 on JAK1 was 100 to 1000 nM; at JAK2, 1000 to 10000 nM; on JAK3, 100 to 1000 nM; at TYK2, less than 100 nM. Moreover, the “Selectivity ratio over JAK2, Tyk2” value on TYK2 is listed as “Tyk2 = 50”.
As to `Cn1cc(Nc2nccc(NC[C@H]3CCCN3C(=O)CCC#N)n2)cn1` [Example 93, (R)-4-(2-(((2-((1-methyl-1H-pyrazol-4-yl)amino)pyrimidin-4-yl)amino)methyl)pyrrolidin-1-yl)-4-oxobutanenitrile], the IC50 on JAK1 is less than 100 nM; at JAK2, 1000 to 10000 nM; on JAK3 it was 1000 to 10000 nM; at TYK2, less than 100 nM. Besides, the “Selectivity ratio over JAK2, Tyk2” value on TYK2 is listed as “Tyk2 = 145”.
As to `C=CC(=O)N1CCCC[C@H]1CNc1nc(Nc2cnn(C)c2)ncc1Cl` [Example 34, (S)-1-(2-(((5-chloro-2-((1-methyl-1H-pyrazol-4-yl)amino)pyrimidin-4-yl)amino)methyl)piperidin-1-yl)prop-2-en-1-one], the IC50 on JAK1 was 100 to 1000 nM; at JAK2, more than 10000 nM; on JAK3 it was 1000 to 10000 nM; at TYK2 it was 1000 to 10000 nM.
`Cc1cnc(Nc2cnn(CC(F)F)c2)nc1NC[C@@H]1C[C@H](F)CN1CCC#N` [Example 121, 3-((2S,4S)-2-(((2-((1-(2,2-difluoroethyl)-1H-pyrazol-4-yl)amino)-5-methylpyrimidin-4-yl)amino)methyl)-4-fluoropyrrolidin-1-yl)propanenitrile]: at JAK1, the “Selectivity ratio over JAK2, JAK1” value is listed as “JAK1 = 56”. Also, the IC50 was less than 100 nM at JAK1, 1000 to 10000 nM on JAK2, 100 to 1000 nM on JAK3 and less than 100 nM on TYK2.
`Cc1cnc(Nc2cnn(CC(F)F)c2)nc1NC[C@@H]1C[C@H](F)CN1CCS(C)(=O)=O` [Example 120, N^2-(1-(2,2-difluoroethyl)-1H-pyrazol-4-yl)-N^4-(((2S,4S)-4-fluoro-1-(2-(methylsulfonyl)ethyl)pyrrolidin-2-yl)methyl)-5-methylpyrimidine-2,4-diamine]: the “Selectivity ratio over JAK2, JAK1” value on JAK1 is listed as “JAK1 = 81”. The IC50 at JAK1 is less than 100 nM; at JAK2, 1000 to 10000 nM; at JAK3, 1000 to 10000 nM; at TYK2 it was 100 to 1000 nM.
For the molecule `CCNC(=O)N1CCC[C@@H]1CNc1nc(Nc2cnn(C)c2)ncc1Cl` [Example 88, (R)-2-(((5-chloro-2-((1-methyl-1H-pyrazol-4-yl)amino)pyrimidin-4-yl)amino)methyl)-N-ethylpyrrolidine-1-carboxamide], the IC50 was 100 to 1000 nM at JAK1, 100 to 1000 nM at JAK2, 100 to 1000 nM on JAK3 and less than 100 nM at TYK2. Besides, the “Selectivity ratio over JAK2, Tyk2” value on TYK2 is “Tyk2 = 35”.
As for `Cn1cc(Nc2ncc(F)c(NC[C@H]3CCCN3)n2)cn1` [Example 70, (R)-5-fluoro-N^2-(1-methyl-1H-pyrazol-4-yl)-N^4-(pyrrolidin-2-ylmethyl)pyrimidine-2,4-diamine Hydrochloride], the IC50 on JAK1 is 1000 to 10000 nM; on JAK2 it was more than 10000 nM; on JAK3 it was more than 10000 nM; at TYK2, more than 10000 nM.
On to `CC(=O)N1CC[C@H](CNc2nc(Nc3cnn(CCO)c3)ncc2Cl)C1` [Example 21, (R)-1-(3-(((5-chloro-2-((1-(2-hydroxyethyl)-1H-pyrazol-4-yl)amino)pyrimidin-4-yl)amino)methyl)pyrrolidin-1-yl)ethanone], for which, at JAK1, the “Selectivity ratio over JAK2, JAK1” value is recorded as “JAK1 = 78”. For the same molecule, the IC50 on JAK1 was less than 100 nM; at JAK2, 1000 to 10000 nM; on JAK3, 100 to 1000 nM; on TYK2 it was less than 100 nM.
As for `Cc1cnc(Nc2cnn(C)c2)nc1NC[C@@H]1CCCN1CCC#N` [Example 106, (S)-3-(2-(((5-methyl-2-((1-methyl-1H-pyrazol-4-yl)amino)pyrimidin-4-yl)amino)methyl)pyrrolidin-1-yl)propanenitrile], the IC50 at JAK1 is less than 100 nM; at JAK2, 1000 to 10000 nM; at JAK3 it was 100 to 1000 nM; at TYK2, less than 100 nM. Besides, the “Selectivity ratio over JAK2, Tyk2” value on TYK2 is recorded as “Tyk2 = 38”.
For the molecule `Cc1cnc(Nc2cnn(C)c2)nc1NC[C@H]1CCCN1CCS(C)(=O)=O` [Example 107, (R)-5-methyl-N^2-(1-methyl-1H-pyrazol-4-yl)-N^4-((1-(2-(methylsulfonyl)ethyl)pyrrolidin-2-yl)methyl)pyrimidine-2,4-diamine], the IC50 at JAK1 is less than 100 nM; on JAK2, 100 to 1000 nM; at JAK3, less than 100 nM; on TYK2, less than 100 nM. Further, the “Selectivity ratio over JAK2, Tyk2” value at TYK2 is on record as “Tyk2 = 67”.
In the case of `Cc1cnc(Nc2cnn(CC(F)F)c2)nc1NC[C@H]1CCN(C(=O)CCC#N)C1` [Example 130, (R)-4-(3-(((2-((1-(2,2-difluoroethyl)-1H-pyrazol-4-yl)amino)-5-methylpyrimidin-4-yl)amino)methyl)pyrrolidin-1-yl)-4-oxobutanenitrile], on JAK1, the “Selectivity ratio over JAK2, JAK1” value is recorded as “JAK1 = 143”. Moreover, the IC50 on JAK1 was less than 100 nM; on JAK2, 100 to 1000 nM; on JAK3, 100 to 1000 nM; at TYK2, less than 100 nM.
As for `Cn1cc(Nc2ncc(Cl)c(NC[C@@H]3CCCN3CCC#N)n2)cn1` [Example 81, (S)-3-(2-(((5-chloro-2-((1-methyl-1H-pyrazol-4-yl)amino)pyrimidin-4-yl)amino)methyl)pyrrolidin-1-yl)propanenitrile], the IC50 is less than 100 nM at JAK1, less than 100 nM on JAK2, 100 to 1000 nM at JAK3 and less than 100 nM at TYK2. For the same molecule, the “Selectivity ratio over JAK2, Tyk2” value at TYK2 is reported as “Tyk2 = 11”.

The values are drawn from US20150005281A1, “PYRIMIDINE-2,4-DIAMINE DERIVATIVES AS KINASE INHIBITORS” (Cellzome Limited, priority 2011, published 2015).
